Test results from patent US20170137880A1, “METHOD FOR TREATING DEPRESSION AND MAJOR DEPRESSIVE DISORDER” (Takeda Pharmaceutical Company Limited, priority 2014, published 2017).

Key:
Format in all cases: in vivo, human
MDD individuals = assay: Treatment effect by MADRS and HAM-A scores in genetic subgroups; conditions: for Treatment-specific effect (MADRS scores): 5-variant and 7-variant models
Procedure: (§1) Multicenter, randomized, double-blind, parallel-group, placebo-controlled, drug-referenced, fixed-dose studies were conducted to evaluate the efficacy and safety of vortioxetine (10, 15 and 20 mg/Day) in the acute treatment of adult patients with MDD. A total of 595 individuals meeting the diagnostic criteria from the DSM-IV-TR for recurrent MDD were included in the studies. The current major depressive disorder for each individual was confirmed by the Structured Clinical Interview for DSM Disorders (SCID). […] Individuals were treated with 10, 15 or 20 mg vortioxetine, or a different drug, or a placebo daily for 8 weeks.
(§2) Subjects were seen weekly during the first 2 weeks of treatment and then every 2 weeks up to the end of the 8-week treatment period. The primary outcome measure was change from baseline in MADRS total score after 8 Weeks of treatment. The Montgomery Asberg Depression Rating Scale (MADRS) is a depression rating scale consisting of 10 items, each rated 0 (no symptom) to 6 (severe symptom). The 10 items represent the core symptoms of depressive illness. The rating is based on a clinical interview with the patient, moving from broadly phrased questions about symptoms to more detailed ones, which allow a precise rating of severity, covering the most recent 7 days. Total score is from 0 to 60, with a higher the score being the more severe.
(§3) A composite score (or genetic score) was calculated via penalized regression using a set of focused genomic regions. The cutoff point of the genetic score that maximizes treatment specific effect was then identified. Statistical significance (via a parametric bootstrap approach) of the treatment effect for the subgroup defined by the optimal cutpoint was then determined.
A least square means plot of MADRS scores obtained during treatment with 10 mg vortioxetine is shown in FIG. 12B using the 7-variant model. […]

adult patients with MDD = assay: Response rate by treatment and genetic subgroup (responders: 50% decrease in MADRS total score from baseline at week 8); conditions: for Response rate: 20 mg/day, 8 weeks; for No Response (number of subjects) / Response (number of subjects): Lu 20 mg only
Procedure: as §1, §2
Secondary outcome measures included the proportion of responders at week 8 (responders defined as a 50% decrease in MADRS total score from baseline); a change from baseline in MADRS total score at week 8; and a change in clinical status using CGI-I score at week 8. The Clinical Global Impression—Global Improvement (CGI-I) scale is a 7-point scale rated from 1 (very much improved) to 7 (very much worse). The investigator rated the patient's overall improvement relative to baseline, whether or not, in the opinion of the investigator, this was entirely due to the drug treatment.
Nucleic acid samples from the individuals were run on an Illumina™ HumanOmni5EXOME whole genome bead-chip array according to the manufacturer's protocol. The raw dataset of 595 samples times 4,641,218 variants was narrowed to 473 samples times 3,923,897 variants following quality control (QC).
as §3

adult MDD patients = assay: Cognition, Cognitive and Physical Functioning Questionnaire (CPFQ); conditions: for Cognition (CPFQ): 7-variant model, adult MDD patients
Description: According to the CDC, cognitive impairment is when a person has trouble remembering, learning new things, concentrating, or making decisions that affect their everyday life. Cognitive impairment ranges from mild to severe. With mild impairment, people may begin to notice changes in cognitive functions, but still be able to do their everyday activities. Severe levels of impairment can lead to losing the ability to understand the meaning or importance of something and the ability to talk or write, resulting in the inability to live independently. Cognitive ability can be assessed by, for example, Massachusetts General Hospital Cognitive and Physical Functioning Questionnaire (see, e.g., Fava et al., J. Clin. Psychiatry, 67:11 (2006)) and/or the Digit Symbol Substitution Test (DSST) (see Mahableshwarker et al., Neuropsychopharmacology, in press 2015).
In FIG. 13, the term “SNP7=1” corresponds to patients in the subgroup identified by the 7-variant model; the term “SNP7=0” corresponds to patients not in the subgroup.

What does the source list for `Br.Cc1ccc(Sc2ccccc2N2CCNCC2)c(C)c1` [vortioxetine, 1-[2-(2,4-Dimethyl-phenylsulfanyl)-phenyl]-piperazine, hydrobromide]?
Treatment-specific effect (MADRS scores) (MDD individuals; 10 mg): evidence for a treatment-specific effect; Treatment-specific effect (MADRS scores) (MDD individuals; 20 mg): evidence for a treatment-specific effect; Response to treatment as measured by MADRS and HAM-A scores (MDD individuals; MDD individuals with rs4045 and a CACNA1C variant): significantly enhanced response; Response rate (adult patients with MDD; COL26A1 rs4045 and a CACNA1C variant positive): 14/17; Response rate (adult patients with MDD; Total): 40/120; Response rate (adult patients with MDD; Variant negative): 6/25; Response rate (adult patients with MDD; subgroup N/A): 28/78; No Response (number of subjects) (adult patients with MDD; <NA>): 50; Response (number of subjects) (adult patients with MDD; <NA>): 28; No Response (number of subjects) (adult patients with MDD; In the Subgroup): 3; Response (number of subjects) (adult patients with MDD; In the Subgroup): 14; No Response (number of subjects) (adult patients with MDD; Not in Subgroup): 19; Response (number of subjects) (adult patients with MDD; Not in Subgroup): 6; Cognition (CPFQ) (adult MDD patients; 10 mg/day): evidence for improved cognition; Cognition (CPFQ) (adult MDD patients; 20 mg/day): evidence for improved cognition; Cognition (adult MDD patients; individuals with COL26A1 rs4045 and a CACNA1C variant, 20 mg/day for 8 weeks): improved cognition
